Test system: U937 chronic human histiocytic leukemia cells or K562 human chronic myeloid leukemia cells
Test: MTT assay of the 27 member PBD library synthesised on crowns (photolytic cleavage, continuous incubation)
Format: cell-based
Conditions: 4 days, with or without UVA (365 nm, 2 h) not given
Procedure: The ability of agents to inhibit the growth of U937 chronic human histiocytic leukemia cells or K562 human chronic myeloid leukemia cells in culture was measured using the MTT assay (Mosmann, 1983). This is based on the ability of viable cells to reduce a yellow soluble tetrazolium salt, 3-(4,5-dimethylthiazolyl)-2,5-diphenyltetrazolium bromide (MTT; Sigma Chemical Co.), to an insoluble purple formazan precipitate. Following drug treatment, the cells were transferred to 96-well microtitre plates with 10^4 cells per well and 8 wells per sample. The plates were incubated at 37° C. in a humidified atmosphere containing 5% CO2. Following incubation of the plates for 4 days (to allow control cells to increase in number by 10-fold), 20 μL of a 5 mg/mL solution of MTT in phosphate-buffered saline was added to each well and the plates incubated further for 5 hours. […] The optical density was then read at a wavelength of 550 nm on a Titertek Multiscan ELISA plate reader and the dose-response curve constructed. […]
Following incubation of the plates for 4 days (to allow control cells to increase in number by 10-fold), 20 μL of a 5 mg/mL solution of MTT in phosphate-buffered saline was added to each well and the plates further incubated for 5 hours. […] The optical density was then read at a wavelength of 550 nm on a Titertek Multiscan ELISA plate reader and the dose-response curve constructed.

COc1cc2c(cc1OCc1ccccc1)N=C[C@@H]1CCCN1C2=O [Benzyl DC-81, reference compound]
% Control at 0.3 μM: 47.4%
